Experimental data taken from patent US7501424B2, “N-phenyl-2-pyrimidine-amine derivatives and process for the preparation thereof” (Il-Yang Pharm. Co., Ltd., priority 2005, dated 2009).
In brackets after ≈: the same amount, converted by molar mass. Where two headings read alike, the source gives them in different places. Blank lines part the entries; values can stand above or below the compound they belong to.

Experiments:
K562 cancer cell = assay: Growth inhibition of K562 cancer cell (MTT); assay type: cell-based; settings: for IC50: Homo sapiens, K562, 48 h, K562, MTT, 2 days; for improved activity compared with Imatinib mesylate: K562
Experimental: (§1) In the present experiment, the inhibitory activity of the compound of formula (1) was determined against the growth of K562 cancer cell. First, the cells were allowed to stand in RPMI (Roswell Park Memorial Institute)-1640 medium containing 10% (v/v) fetal bovine serum in an incubator of 37° C. and 5% by volume of CO2. The cancer cells (1000 cells) were transferred to a 96-well plate, and the test compound was diluted. The plate was allowed to stand under the above mentioned conditions for 2 days. After this treatment, to the cells was added 0.2% MTT (3-[4,5-dimethylthiazol-2-yl]-2,5-diphenyltetrazolium bromide) solution, and the resulting mixture was allowed to stand under the constant temperature-condition for 4 hours. The supernatant was removed to leave the resulting crystal. DMSO was added to dissolve the crystal, and the absorbance of the solution was measured at 540 nm. IC50 value was calculated using a computer system according to the following formula: (OD540(test)−OD540(blank)/OD540(control)−OD540(blank))×100

CT-26 cancer cell = assay: Growth inhibition of CT-26 cancer cell (MTT); assay type: cell-based; settings: for improved activity compared with Imatinib mesylate: CT-26; for IC50: CT-26, MTT, 2 days
Experimental: as §1
In the present experiment, the inhibitory activity of the compounds of formula (1) was determined against the growth of CT-26 cancer cell. The test was performed according to the same procedure as Experiment 1.

A549 = assay: Growth inhibition of lung cancer cell A549 (MTT); assay type: cell-based
Experimental: as §1
(§2) The test was performed according to the same procedure as Experiment 1.
as §2

Panc-1 = assay: Growth inhibition of pancreatic cancer cell Panc-1 (MTT); assay type: cell-based; settings: Homo sapiens; Panc-1, Experiment 3
Experimental: as §1, §2

A-172 = assay: Growth inhibition of encephalophyma cell A-172 (MTT); assay type: cell-based; settings: Homo sapiens; A-172, Experiment 3
Experimental: as §1, §2

RPMI-6666 = assay: Growth inhibition of lymphoma cell RPMI-6666 (MTT); assay type: cell-based; settings: Homo sapiens; RPMI-6666, Experiment 3
Experimental: as §1, §2

SNU-C1 = assay: Growth inhibition of colon cancer cell SNU-C1 (MTT); assay type: cell-based; settings: Homo sapiens; SNU-C1, Experiment 3
Experimental: as §1, §2

SNU-1 = assay: Growth inhibition of gastric cancer cell SNU-1 (MTT); assay type: cell-based
Experimental: as §1, §2, §2

Sarcoma-180 = assay: Growth inhibition of Sarcoma-180 (MTT); assay type: cell-based; settings: for IC50: Sarcoma-180, Experiment 4
Experimental: as §1, §2

KB = assay: Growth inhibition of oral epithelial cancer cell KB (MTT); assay type: cell-based
Experimental: as §1, §2

SK-OV-03 = assay: Growth inhibition of ovarian cancer cell SK-OV-03 (MTT); assay type: cell-based; settings: for IC50: SK-OV-03, Experiment 4
Experimental: as §1, §2

[1] = Acute toxicity test in mice (oral administration); assay type: in vivo; settings: both sexes, ICR, mouse, in vivo, po
Experimental: (§3) In order to determine the acute toxicity of the compound of the present invention when the compound is orally administered, mice (ICR, 24˜26 g) were fasted for 16 hours. One group consists of 10 males and 10 females. The first group is the control group and 0.5% sodium carboxymethyl cellulose (CMC) was administered per oral to this group. The compounds of Examples 5 and 8 were orally administered in a dosage of 2,000 mg/kg, the maximum dosage in acute toxicity test, to each test group. […] On the last day of the test, 14th day from the start, the mice were subjected to an autopsy in order to examine changes of the internal organs. […] Further, since no mouse died during the test period, it was confirmed that the compounds of Examples 5 and 8 have LD50 of 2,000 mg/kg or more. This means that the compounds of the present invention including those of Examples 5 and 8 are safe in the aspect of acute toxicity.

mice (ICR) = assay: Acute toxicity test in mice (oral administration); assay type: in vivo; settings: mice (ICR), oral 2,000 mg/kg, 14 days
Experimental: as §3

[2] = Acute toxicity test in rat (oral administration); assay type: in vivo; settings: both sexes, SD, rat, in vivo, po
Experimental: (§4) In this test, the acute toxicity of the compound of the present invention when the compound is […] was determined on rat (SD-Rat, 100˜110 g). One group consists of 5 males and 5 females. The first group is the control group and 0.5% CMC was intravenously administered to this group. The compounds of Examples 5 and 8 were orally administered in a dosage of 1,000, 2,000 mg/kg, respectively, to each test group. […] On the last day of the test, 14th day from the start, the rat were subjected to an autopsy in order to examine changes of the internal organs. […] Further, since no […] died during the test period, it was confirmed that the compounds of Examples 5 and 8 have LD50 of 2,000 mg/kg or more. This means that the compounds of the present invention including those of Examples 5 and 8 are safe in the aspect of acute toxicity.

rat (SD-Rat) = assay: Acute toxicity test in rat (oral administration); assay type: in vivo; settings: SD-Rat, orally 1,000, 2,000 mg/kg, 14 days
Experimental: as §4

in vivo = settings: male, Sprague-Dawley, rat, po, 100 mg/kg
HT-1197 = assay: Growth inhibition of bladder cancer cell HT-1197 (MTT); assay type: cell-based; settings: Homo sapiens, HT1197; HT-1197, Experiment 3
Experimental: as §1, §2

[3] = Comparative pharmacokinetic test in white rats
[4] = Mus musculus, CT26, 48 h, read-out: IC50
[5] = Homo sapiens, A549, Experiment 3, read-out: IC50
[6] = Homo sapiens, SNU1, SNU-1, Experiment 3, read-out: IC50
[7] = male, Sprague-Dawley, rat, plasma, po, 100 mg/kg

SMILES: Cc1cn(-c2cc(NC(=O)c3ccc(Nc4nccc(-c5cccnc5)n4)cc3)cc(C(F)(F)F)c2)cn1.Cl.Cl [Example 24, N-[3-(4-methylimidazol-1-yl)-5-trifluoromethyl-phenyl]-4-(4-pyridin-3-yl-pyrimidin-2-ylamino)-benzamide 2 hydrochloride]
improved activity compared with Imatinib mesylate (K562 cancer cell): 50 times
improved activity compared with Imatinib mesylate (CT-26 cancer cell): 300 times
IC50 (CT-26 cancer cell): 2.3 ng/mL

SMILES: Cc1cn(-c2cc(NC(=O)c3ccc(C)c(Nc4nccc(-c5nccnc5C)n4)c3)cc(C(F)(F)F)c2)cn1 [Example 12, 4-methyl-N-[3-(4-methylimidazol-1-yl)-5-trifluoromethyl-phenyl]-3-[4-(3-methylpyrazin-2-yl)-pyrimidin-2-ylamino]-benzamide]
IC50 (K562 cancer cell): 210 ng/mL (≈ 0.386 µM)
improved activity compared with Imatinib mesylate (K562 cancer cell): much higher activity than Imatinib mesylate
IC50 (CT-26 cancer cell; [4]): 2930 ng/mL (≈ 5.38 µM)

SMILES: Cc1cn(-c2cc(NC(=O)c3ccc(C)c(Nc4nccc(-c5cnccn5)n4)c3)cc(C(F)(F)F)c2)cn1 [Example 8, 4-methyl-N-[3-(4-methylimidazol-1-yl)-5-trifluoromethyl-phenyl]-3-(4-pyrazin-2-yl-pyrimidin-2-ylamino)-benzamide]
IC50 (K562 cancer cell): ≤ 10 ng/mL
improved activity compared with Imatinib mesylate (K562 cancer cell): 50 times
improved activity compared with Imatinib mesylate (CT-26 cancer cell): 300 times
IC50 (CT-26 cancer cell; [4]): < 10 ng/mL
improved activity than Imatinib mesylate (A549; A549, Experiment 4): > 3.5 times
IC50 (A549; [5]): 2230 ng/mL (≈ 4.2 µM)
IC50 (Panc-1): 498 ng/mL (≈ 0.939 µM)
IC50 (A-172): < 10 ng/mL
IC50 (RPMI-6666): < 10 ng/mL
IC50 (SNU-C1): < 10 ng/mL
IC50 (SNU-1; [6]): < 10 ng/mL
IC50 (SNU-1; Homo sapiens, SNU1, SNU-1, Experiment 4, read-out: IC50): 270 ng/mL (≈ 0.509 µM)
improved activity in comparison with cisplatin (SNU-1; SNU-1, Experiment 4): more than 8 times
improved activity than Imatinib mesylate (SNU-1; SNU-1, Experiment 4): more than 170 times
IC50 (Sarcoma-180; Mus musculus, read-out: IC50): < 0.1 ng/mL
improved activity than Imatinib mesylate (Sarcoma-180; Sarcoma-180): more than 1×10^4 time
improved activity than Imatinib mesylate (KB): more than 1×10^4 time
IC50 (KB; Homo sapiens, Experiment 4, read-out: IC50): 0.58 ng/mL (≈ 0.00109 µM)
improved activity than Imatinib mesylate (SK-OV-03; SK-OV-03): > 12 times
IC50 (SK-OV-03; read-out: IC50): 2390 ng/mL (≈ 4.51 µM)
LD50 at 14 days [1]: ≥ 2000 mg/kg
clinical conditions and autopsy (mice (ICR)): neither abnormal response nor specific autopsy result was observed
LD50 at 14 days [2]: ≥ 2000 mg/kg
clinical conditions and autopsy (rat (SD-Rat)): neither abnormal response nor specific autopsy result was observed
AUC (in vivo): 61300 ng·h/mL
Cmax (in vivo): 4100 ng/mL
Tmax (in vivo): 12 h

SMILES: Cc1ccc(C(=O)Nc2cc(-n3ccnc3C)cc(C(F)(F)F)c2)cc1Nc1nccc(-c2nccnc2C)n1 [Example 13, 4-methyl-N-[3-(2-methylimidazol-1-yl)-5-trifluoromethyl-phenyl]-3-[4-(3-methylpyrazin-2-yl)-pyrimidin-2-ylamino]-benzamide]
IC50 (K562 cancer cell): 304 ng/mL (≈ 0.558 µM)
improved activity compared with Imatinib mesylate (K562 cancer cell): much higher activity than Imatinib mesylate
IC50 (CT-26 cancer cell; [4]): 3770 ng/mL (≈ 6.92 µM)

SMILES: N.N.[Cl][Pt][Cl] [Cisplatin, reference compound]
IC50 (A549; A549, Experiment 4): 679 ng/mL
IC50 (SNU-1; SNU-1, Experiment 4): 2064 ng/mL
IC50 (Sarcoma-180): <0.1 ng/mL
IC50 (KB; Experiment 4): 0.28 ng/mL
IC50 (SK-OV-03): 782 ng/mL

SMILES: Cc1cn(-c2cc(NC(=O)c3ccc(C)c(Nc4nccc(-c5nccs5)n4)c3)cc(C(F)(F)F)c2)cn1 [Example 5, 4-methyl-N-[3-(4-methylimidazol-1-yl)-5-trifluoromethyl-phenyl]-3-(4-thiazol-2-yl-pyrimidin-2-ylamino)-benzamide]
IC50 (K562 cancer cell): ≤ 10 ng/mL
improved activity compared with Imatinib mesylate (K562 cancer cell): 50 times
improved activity compared with Imatinib mesylate (CT-26 cancer cell): 300 times
IC50 (CT-26 cancer cell; [4]): 60 ng/mL (≈ 0.112 µM)
IC50 (A549; [5]): 82 ng/mL (≈ 0.153 µM)
IC50 (Panc-1): 7100 ng/mL (≈ 13.3 µM)
IC50 (A-172): < 10 ng/mL
IC50 (RPMI-6666): < 10 ng/mL
IC50 (HT-1197): 63 ng/mL (≈ 0.118 µM)
IC50 (SNU-C1): < 10 ng/mL
IC50 (SNU-1; [6]): < 10 ng/mL
LD50 at 14 days [1]: ≥ 2000 mg/kg
clinical conditions and autopsy (mice (ICR)): neither abnormal response nor specific autopsy result was observed
LD50 at 14 days [2]: ≥ 2000 mg/kg
clinical conditions and autopsy (rat (SD-Rat)): neither abnormal response nor specific autopsy result was observed
AUC [3, 7]: 114000 ng·h/mL
Cmax [3, 7]: 8270 ng/mL
Tmax [3, 7]: 11.2 h
AUC as much as that of Imatinib mesylate ([3]; white rats, 100 mg/kg per oral): ~5 times
Cmax as much as that of Imatinib mesylate ([3]; white rats, 100 mg/kg per oral): about 4 times

Continued, in another order:

IC50 (K562 cancer cell): ≤ 10 ng/mL
IC50 (CT-26 cancer cell; [4]): < 10 ng/mL
SMILES: Cc1cnc(NC(=O)c2ccc(C)c(Nc3nccc(-c4nccs4)n3)c2)s1 [Example 7, 4-methyl-N-(5-methylthiazol-2-yl)-3-(4-thiazol-2-yl-pyrimidin-2-ylamino)-benzamide]
improved activity compared with Imatinib mesylate (K562 cancer cell): 50 times
improved activity compared with Imatinib mesylate (CT-26 cancer cell): 300 times

IC50 (CT-26 cancer cell; [4]): < 10 ng/mL
SMILES: Cc1ccc(C(=O)Nc2cc(-n3ccnc3C)cc(C(F)(F)F)c2)cc1Nc1nccc(-c2nccs2)n1 [Example 6, 4-methyl-N-[3-(2-methylimidazol-1-yl)-5-trifluoromethyl-phenyl]-3-(4-thiazol-2-yl-pyrimidin-2-ylamino)-benzamide]
improved activity compared with Imatinib mesylate (K562 cancer cell): 50 times
improved activity compared with Imatinib mesylate (CT-26 cancer cell): 300 times

IC50 (K562 cancer cell): ≤ 10 ng/mL
IC50 (CT-26 cancer cell; [4]): < 10 ng/mL
SMILES: Cc1ccc(C(=O)Nc2cc(-n3ccnc3C)cc(C(F)(F)F)c2)cc1Nc1nccc(-c2cnccn2)n1 [Example 9, 4-methyl-N-[3-(2-methylimidazol-1-yl)-5-trifluoromethyl-phenyl]-3-(4-pyrazin-2-yl-pyrimidin-2-ylamino)-benzamide]
improved activity compared with Imatinib mesylate (K562 cancer cell): 50 times
improved activity compared with Imatinib mesylate (CT-26 cancer cell): 300 times

IC50 (CT-26 cancer cell): 9.4 ng/mL
SMILES: Cc1cn(-c2cc(NC(=O)c3ccc(Nc4nccc(-c5nccs5)n4)cc3)cc(C(F)(F)F)c2)cn1.Cl.Cl [Example 30, N-[3-(4-methylimidazol-1-yl)-5-trifluoromethyl-phenyl]-4-(4-thiazol-2-yl-pyrimidin-2-ylamino)-benzamide 2 hydrochloride]
improved activity compared with Imatinib mesylate (K562 cancer cell): 50 times
improved activity compared with Imatinib mesylate (CT-26 cancer cell): 300 times
